How the values were obtained:
[1] = tested on: Npm1/Flt3-ITD cKIT+ cells; test: in vitro culture of cKIT+ leukemic cells with 4-OHT (PrestoBlue); format: cell-based, mice; conditions: 72 hours of culture
[2] = tested on: Npm1GL hematopoietic cells; test: cell number of Dre-induced mutant Npm1 GOLDI-Lox hematopoietic cells after 4-hydroxytamoxifen; format: cell-based, mice; conditions: 7 days post administration
Procedure: FIGS. 30A-30D show the development of a GOLDI-Lox On/Off Dre/Cre Npm1 Mouse. […] A subset of diseased mice were then treated with tamoxifen (TAM) to induce Cre and lead to reversion of the mutant Npm1 allele back to WT Npm1; measured levels of survival (left panel), cKIT^+ cells in the peripheral blood (middle panel), and WBC counts (right panel) in mice that received TAM compared to vehicle treated mice are shown.
Based on previous data on mutant NPM1, it was expected that cells that lose the mutant Npm1 protein undergo differentiation and eventual apoptosis, ultimately leading to a loss of cell number. To validate the reversion of the mutant Npm1 GOLDI-Lox allele to WT, Dre-induced mutant Npm1 GOLDI-Lox hematopoietic cells were exposed to 4-hydroxytamoxifen (40HT) for Cre-recombinase induction, and cell number measured 7 days post 40HT administration using Cre^−; Npm1GL cells as a negative control.

[3] = tested on: mice transplanted with UbcCreER-Jak2^RL bone marrow exhibiting active MPN; test: 6-week in vivo drug trial in competitive transplant MPN mice; conditions: for Hct / spleen weights (mean) / mutant cell fraction in LSK stem-cell enriched population (mean): conclusion of 6-week trial; for spleen weights (mean): ruxolitinib 60 mg/kg P.O. twice daily, CHZ868 30 mg/kg P.O. daily; for CD45.2 chimerism in peripheral blood: 6-week trial; for mutant cell fraction in LSK stem-cell enriched population (mean): bone marrow
Procedure: (§1) Peripheral blood was isolated by submandibular bleeds.
Investigators were not blinded to the identity of mice or samples. Mice were treated for a total of 6 weeks before timed sacrifice and marrow/spleen harvested as above.

[4] = tested on: DreSTAPL (Dre split with HCV-derived NS3 protease); test: DreStaPL recombination reporter assay in infected Lin- bone marrow (Rosa26:RLTG); format: cell-based, mice; conditions: 10 μM
Procedure: (§2) FIGS. 27A-27I show inducible recombinases for modeling Flt3 activation.
(§3) MSCV retroviral vectors were transfected with pCL-Eco packaging vector into 293T-17 cells using JetPRIME following the manufacturers protocol (5 ug each, 1:1). Conditioned media was collected 72 hours later and passed through a 0.45 uM filter. Virus was either used fresh or stored at −80 C for later usage. For viral infection in FIG. 4 and Extended Data 8, lineage negative bone marrow was isolated using the Mouse Hematopoietic Progenitor Cell Isolation Kit (StemCell 19856) and plated over retronectin coated 6 or 12 well plates for 2 hours in RPMI+10% FBS supplemented with Penicillin/Streptomycin, 20 ng SCF, 10 ng IL6 and 10 ng IL3. Virus and 100×HEPES was added to the wells, then plates were spun for 1 hour at 800×G at 37 C. Following spin, small molecule ligands used to activate recombinases were added to a final concentration as indicated ethanol (v/v 0.0015%), DMSO (v/v 0.1%), 4-hydroxytamoxifen (4-OHT; 400 nM), trimethoprim (TMP; 1 uM) or grazoprevir (GZV, 10 uM). Cells were harvested for flow cytometric analysis 48 hours post infection. For viral infection followed by transplantation in Extended Data 8, a similar approach was utilized with the following modifications. Donor mice were treated with 5-FU 6 days prior to harvest. […]

[5] = tested on: DreStaPL-ODC Flt3^GL-ITD mice; test: complete blood counts of DreStaPL-ODC x Flt3^GL-ITD mice after GZV; format: in vivo; conditions: crossed to Flt3^GL-ITD, 6-8 weeks post treatment
Procedure: Peripheral blood was isolated by submandibular bleeds. Complete blood counts were assessed on a ProCyte by IDEXX. For flow cytometry analysis whole blood was lysed with RBC lysis buffer (Biolegend). […] For whole bone marrow was isolation, the femur, hip and tibia were dissected and cleaned.

[6] = tested on: Jak2^V617F LSKs and MEPs; conditions: 7 days of treatment; for down-regulation of STAT5 target gene expression, NES: vs MPN control
Procedure: Lineage-depleted marrow was isolated and then TdTonmato+ (Jak2^RL knock-in) or GFP+ (Jak2^RL knock-out) LSKs and MEPs were sorted on a FACSAria III directly into Trizol LS (Invitrogen) and stored at −80° C. until processing. RNA was subsequently isolated using the Direct-Zol Microprep Kit (Zymo Research, R2061) according to manufacturer's protocol and quantified using the Agilent High Sensitivity RNA ScreenTape (Agilent 5067-5579) on an Agilent 2200 TapeStation. cDNA was generated from 1 ng of input RNA using the SMART-Seq HT Kit (Takara 634455) at half reaction volume followed by Nextera XT (Illumina FC-131-1024) library preparation. cDNA and tagmented libraries were quantified using High Sensitivity D5000 ScreenTape (5067-5592) and High Sensitivity D1000 ScreenTape respectively (5067-5584). Libraries were sequenced on a NovaSeq at the Integrated Genomics Operation (IGO) at MSKCC.
Statistical analyses were performed using Student's t-test (normal distribution) using GraphPad Prism version 6.Oh (GraphPad Software, San Diego, CA). Kaplan-Meier curves were determined using the log-rank test. P<0.05 was considered statistically significant. The number of animals, cells and experimental replication can be found in the respective figure legends. FASTQ files were demultiplexed using a java script from Takara. FASTQ files were mapped and transcript counts were enumerated using STAR (genome version mm10 and transcript version ensembl XX). Counts were input into R and RNA-sequencing analysis using DESeq2. Gene set enrichment analysis was performed using the fgsea package with genesets extracted from the msigdbr package. Single sample gene set enrichment analysis was performed using the gsva package. Figures were generated using ggplot2 and tidyhetamps packages.

[7] = tested on: UbcCreER-Jak2^RL MPN mice; test: bone marrow myeloid progenitor frequencies by flow cytometry after 7 days of treatment; format: in vivo
[8] = tested on: Ybx1; test: Ybx1 quantitative RT-PCR in cKit+ bone marrow after 7 days of treatment; format: in vivo, mice; conditions: sorted cKit+ cells
Procedure: Total RNA was extracted from magnetic-bead isolated cKit+ bone marrow (Miltenyi Biotec) using the Direct-zol RNA extraction kit (Zymo) per manufacturers' protocols respectively. Complementary DNA was then reverse transcribed using the Verso cDNA Synthesis kit (ThermoFisher Scientific). Ybx1 expression was evaluated by quantitative reverse-transcription (qRT) PCR using Taqman probes purchased from ThermoFisher (Mm00850878_g1) on the RealPlex thermocycler (ThermoFisher Scientific, Fairlawn, NJ).

[9] = tested on: mice transplanted with Dre-electroporated Ubc:CreER-Jak2^RL bone marrow exhibiting MPN; test: Jak2^RL knock-in/knock-out competitive transplant, tamoxifen-induced Jak2^V617F deletion; format: in vivo; conditions: within 3-6 weeks following tamoxifen treatment, vs MPN control
Description: as §1

[10] = tested on: Jak2^V617F/Tet2^f/f mutant cells; test: Jak2^V617F/Tet2^f/f competitive transplant, tamoxifen at 9 weeks post-transplant; format: in vivo, mice; conditions: double-mutant cells
Description: Dre mRNA was purchased from TriLink Biotechnologies (San Diego, CA) and electroporation carried out using the Neon Transfection System (ThermoScientific) per the manufacturer's protocol. Specifically, bone marrow donor cells were isolated from limb bones into PBS (pH 7.2) containing 2% fetal calf serum via centrifugation. After red blood cell lysis, single-cell suspensions were depleted of lineage-committed hematopoietic cells using a Lineage Cell Depletion Kit according to manufacturer's protocol (EasySep™, StemCell Technologies, Inc.). 2.5-3.0×10^6 lineage-depleted bone marrow was then washed in PBS and then resuspended in 135 uL Buffer T to which 15 μL of Dre mRNA (at 1 μg/μL) was quickly added and electroporated at the following conditions: 1700V for 20 ms×1 pulse. The cells were then pipetted into penicillin-streptomycin free StemSpan SFEM medium with thrombopoietin (TPO; 20 ng/mL; PeproTech) and stem cell factor (SCF; 20 ng/mL; PeproTech), cultured for two hours, and then subsequently harvested and washed/resuspended in phosphate buffered saline (PBS) and transplanted via lateral tail vein injection into lethally irradiated (900cGy) 6-8 week old C57BL/6J recipient mice at approximately 4×10^5 cells per recipient along with 50,000 un-electroporated whole bone marrow support cells. […]

[11] = tested on: Npm1^c-Lox-Flt3^GL-ITD leukemia; test: long term TAM treatment of mice engrafted with Npm1^Lox-C Flt3^GL-ITD leukemia; format: in vivo; conditions: TAM-chow diet
Description: FIGS. 19A-19H show reversible Flt3 mutagenesis in acute myeloid leukemia. Secondary transplant of Npm1^Lox-C Flt3^GL-ITD (20,000 cells) or Idh2^Lox-R140Q Flt3^GL-ITD (500,000) from FIGS. 18A-18E were engrafted into lethally irradiated secondary recipients with 500,000 CD45.1 WT cells. […]

[12] = tested on: mutant Npm1 GOLDI-Lox Nras^G12D disease; test: bone marrow transplant of Dre-induced mutant Npm1 GOLDI-Lox / Nras^G12D, TAM vs vehicle; format: in vivo; conditions: compared to vehicle treated mice
Procedure: FIGS. 30A-30D show the development of a GOLDI-Lox On/Off Dre/Cre Npm1 Mouse.
A bone marrow transplant of a Dre-induced mutant Npm1 GOLDI-Lox expressing a co-mutant Nras^G12D allele immediately after Dre induction was performed, and mice were monitored for disease development (FIG. 30D, left panel). Upon development of disease, a cohort (n=5) of mice was treated with tamoxifen (TAM) to induce Cre and lead to reversion of the mutant Npm1 allele back to WT Npm1.

[13] = tested on: Cre-negative Jak2^RL MPN bone marrow cells; conditions: mouse, in vivo
Description: FIGS. 9D-9E show total bone marrow (BM) cellularity (femur) (FIG. 9D) and Myeloid progenitor (Lineage−cKit+Sca1−) (FIG. 9E) frequencies of MPN (CTRL) vs. tamoxifen (TAM) treated mice transplanted with Cre-negative JAK2^RL knock-in cells in competition with CD45.1 support at timed sacrifice 15 weeks (n=3-4 each; mean±s.e.m).
Jak2^RL and Jak2^RL/Tet2^f/f lines were crossed to UbcCreER tamoxifen-inducible Cre lines and RLTG dual-recombinase reporter lines.^17,24 Primary recipient mice transplanted with Dre mRNA-recombined UbcCreER-Jak2^RL or UbcCreER-Jak2^RL/Tet2^f/f bone marrow cells were bled every 3-4 weeks post-transplant to monitor disease status. Peripheral blood was isolated by submandibular bleeds. Complete blood counts were assessed on a ProCyte Dx (IDEXX Laboratories, Westbrook, ME) per manufacturer's instruction. […] To induce Cre and delete Jak2^V617F, mice were treated with tamoxifen (TAM; purchased from MedChemExpress) 100 mg/kg daily (dissolved in corn oil) by oral gavage ×4 followed by 14 days of TAM chow approx. 80 mg/kg daily (ENVIGO). […] For terminal tissue isolation, mice were euthanized with CO2 asphyxiation, and tissues were dissected and fixed with 4% paraformaldehyde for histopathological analysis. […] Bone marrow cell numbers were determined via an automatic cell counter (ViCell Blu, Beckman Coulter). […]

[14] = tested on: FlpoDHFR in Npm1^Frt-C Flt3^Frt-ITD bone marrow; conditions: FlpoDHFR delivered as a retrovirus in a transplant model
Procedure: as §2, §3

## 4-hydroxytamoxifen [4-OHT]
[1]
  cell number, Ubc:CreERT2 Npm1^c-Lox-Flt3^GL-ITD cells: reduction in cell number
[1]; control without Cre-deletable allele
  cell number, FlpoERT2 Npm1^c-Frt Flt3^Frt-ITD cells: not
[2]
  cell number, Cre+; Npm1GL cells: significant loss of cells
[2]; negative control
  cell number, Cre-; Npm1GL control cells: not observed

## CC(=O)Nc1cc(Oc2ccc3c(nc(Nc4ccc(F)cc4F)n3C)c2C)ccn1 [CHZ868]
[3]; compared to vehicle/ruxolitinib-treated mice, not to the extent seen with Jak2^V617F deletion
  MEP, GMP, and LSK mutant allele burden: Significant reductions
[3]
  Hct: 50.3%
  spleen weights (mean): 76 mg

## C=C[C@@H]1C[C@]1(NC(=O)[C@@H]1C[C@@H](Oc2ncc(OC)c3ccc(Cl)cc23)CN1C(=O)[C@@H](NC(=O)OC(C)(C)C)C(C)(C)C)C(=O)NS(=O)(=O)C1CC1 [asunaprevir]
[4]
  recombination upon inhibition of NS3 proteolytic activity: efficient recombination

## C=C[C@@H]1C[C@]1(NC(=O)[C@@H]1C[C@@H]2CN1C(=O)[C@H](C(C)(C)C)NC(=O)O[C@@H]1C[C@H]1CCCCCc1nc3ccc(OC)cc3nc1O2)C(=O)NS(=O)(=O)C1CC1.O [grazoprevir]
[4]
  recombination upon inhibition of NS3 proteolytic activity: efficient recombination
[5]
  peripheral blood counts with GZV treatment, CAG:DreStaPL-ODC mice: monocytosis, mild anemia and mild thrombocytopenia
  peripheral blood counts with GZV treatment, Vav1:DreStaPL-ODC mice: no significant differences

## N#CC[C@H](C1CCCC1)n1cc(-c2ncnc3[nH]ccc23)cn1 [ruxolitinib]
[6]; GSEA of RNA-seq
  down-regulation of STAT5 target gene expression, NES: −0.913
[6]; GSEA of RNA-seq, LSKs
  erythroid pathway gene expression (heme metabolism), NES: 1.45
[7]
  GMP frequency: 6.66%
  MEP frequency: 35.3%
[3]
  CD45.2 chimerism in peripheral blood: 37.7%
  mutant cell fraction in LSK stem-cell enriched population (mean): 87.6%
  Hct: 85.8%
  spleen weights (mean): 235 mg
[8]
  expression of Ybx1, Rel. exp: 2.52

## CC/C(=C(\c1ccccc1)c1ccc(OCCN(C)C)cc1)c1ccccc1 [tamoxifen]
[6]; GSEA of RNA-seq
  down-regulation of STAT5 target gene expression, NES: −1.51
[6]; GSEA of down regulation of KRAS signaling targets, MEPs, vs vehicle
  MAPK activity by RNA-Seq, NES: 1.35
[7]
  GMP frequency: 20.1%
  MEP frequency: 14.2%
[3]
  CD45.2 chimerism in peripheral blood: 17.3%
  mutant cell fraction in LSK stem-cell enriched population (mean): 28.7%
  spleen weights (mean): 125 mg
[8]
  expression of Ybx1, Rel. exp: 0.42
[9]
  WBC (mean): 7.59 K/uL
  hematocrit (mean): 41.6%
  platelet (mean): 749 K/uL
[10]
  hematologic parameters: normalization
  peripheral blood mutant cell fraction: reductions
[11]
  overall survival: increase in overall survival
[12]
  WBC counts: significant decrease
  cKIT+ cells in the peripheral blood: significant decrease
  survival: no significant difference
[13]
  phenotypes observed with Ubc:CreER-Jak2^V617F deletion, with tamoxifen in the absence of Jak2^V617F reversal: not observed

## COc1cc(Cc2cnc(N)nc2N)cc(OC)c1OC [trimethoprim]
[14]
  disease induction in the Flp Flt3/Npm1 model: capable of inducing aggressive AML

Reference: patent US20250304933A1, “INDUCIBLE RECOMBINASE SYSTEMS” (priority 2022, published 2025)
